# Assay results published in US20230089723A1, “AMINO ACID COMPOSITIONS AND METHODS FOR MUSCLE AND MYOTUBE MODULATION” (AXCELLA HEALTH INC., priority 2020, published 2023).
# Tests used:
# [1] = system: differentiating cultured human myotubes (primary myoblasts W018); assay: In vitro model for myogenesis: myotube fusion index (modified MyoScreen); format: cell-based; conditions: myotubes in DMEM with 0.15× plasma amino acid profile, treated with amino acids at 1× human plasma concentration, 4 days
# Method: (§1) Primary myoblasts (W018) were amplified and seeded into CYTOOplates on Day 0. After one day differentiation was started in DMEM/F12+GlutaMAX supplemented with 0.1% Horse Serum.
# Fusion Index Analysis after 4 Days by Fluorescence Microscopy
# Images were acquired with Operetta HCS platform (Perkin Elmer) using a 10× objective in two fluorescent channels: nuclei, Troponin T. Image processing and analysis were performed with a dedicated algorithm developed on Acapella high Content imaging Software (Perkin Elmer) at CYTOO. Nuclei within myotubes were counted under myotube mask generated by troponin co-stain and fusion index was calculated as the percentage of fused nuclei in myotube over total nuclei. Statistical analysis was done with T-Test relative to the untreated condition.
# [2] = system: cultured human myotubes (primary myoblasts W018); assay: In vitro model for muscle protein synthesis: Click-iT OPP incorporation in myotubes (modified MyoScreen); format: cell-based; conditions: myotubes in DMEM with 0.15× plasma amino acid profile, treated with amino acids at 1× human plasma concentration, 4 days; Click-iT signal in myotube mask
# Method: The ability of amino acids to influence protein synthesis in muscle cells was assessed using a modified version of MyoScreen (Cytoo SA, Grenoble Fr).
# as §1
# Protein Synthesis after 4 Days by Fluorescence Microscopy
# After 4 days of culture, cells were washed twice with PBS 1× (Gibco), fixed with 4% Paraformaldehyde, and washed twice with PBS 1× (100 μL). Cells were then permeabilized by 0.5% Triton X-100 followed by three washes with PBS. After fixation, cells were immuno-stained for troponin to identify specific myotubes. […] In the Click-iT assay, 0-propargyl-puromycin (OPP) is efficiently incorporated into newly translated proteins in vivo for 30 minutes and then fluorescently labeled with Alexa Fluor® dye, which can be detected by high-content imaging (Molecular Devices). Click-iT signal was restricted to the myotube mask generated by the troponin co-stain. Data was collected as Click-iT mean intensity in myotubes (au). Images were acquired with Operetta HCS platform (Perkin Elmer) using a 10× objective in three fluorescent channels: nuclei, Troponin T, and Click-iT. Image processing and analysis were performed with a dedicated algorithm developed on Acapella high Content imaging Software (Perkin Elmer) at CYTOO. […]
compound,measurement,setting,value
"N[C@@H](CC(=O)O)C(=O)O [D, Aspartic acid/Aspartate]",Fusion Index median,[1],0.05657
same,Protein Synthesis median,[2],0.1078
